These results are taken from paper PMC4971421, “Redox-Dependent Modulation of T-Type Ca^2+ Channels in Sensory Neurons Contributes to Acute Anti-Nociceptive Effect of Substance P” (Antioxidants & Redox Signaling, 2016).

The test system of experiment [1] is delayed-rectifier K^+ current in DRG neurons. The experiment in a line: Delayed-rectifier K+ current in DRG neurons. It counts as cell-based, rat. The following applies: 1 nM.
The test system of experiment [2] is rat hind paw. In words: Nocifensive behavior after intraplantar hind-paw injection. The format is in vivo. To be noted: hind-paw injection 50 μl, 30 min. How it is done:
Sprague–Dawley rats (body weight, 170–180 g) were grouped randomly and allowed to acclimate for at least 30 min in a transparent observation chamber before the experiment. Animals received a 50-μl intraplantar injection of ST101 (0.001–10 nmol/site), BK (10 nmol/site), RTG (1–10 nmol/site), Z944 (0.05–5 nmol/site), SP (0.5–5 nmol/site), or saline, respectively, into the right hind paw. For evaluation of the acute “spontaneous” pain, animals were video-recorded for 30 min after the injection and protective (“nocifensive”) behavior was analyzed as time spent licking, biting, lifting, and flinching the injected paw. The analyses were performed by an observer who was unaware of treatment allocations. In the pre-injection experiments, the right hind paw of the animal received a pre-injection of 50 μl Z944 (0.05–0.5 nmol/site), RTG (1–10 nmol/site), SP (0.5 nmol/site), Z944 (0.05–0.5 nmol/site)+RTG (1 nmol/site), or saline; 5 min later, on the same paw, the animal received a further 50-μl injection of BK (10 nmol/site) together with the pre-injection drug mix. Nocifensive behavior was analyzed as described earlier.

Experiment [3] concerns small-diameter DRG neurons. The experiment in a line: DRG neuron excitability, perforated patch current clamp. It counts as cell-based, rat. On the procedure: To knock down CaV3.2, DRGs were dissociated as described ([13]); immediately after dissociation, DRG pellets were resuspended in 900 μl DMEM (without GlutaMax I, serum or antibiotics), to which a mixture of 9 μl Lipofectamine RNAiMAX (Invitrogen) and either a mix of three anti-Cacna1h Stealth siRNAs (RSS350285, RSS350286, RSS350287; Life Technologies; 200 nM each) or a scrambled control oligo (Stealth RNAi™ siRNA Negative Control; Life Technologies; 200 nM) were added immediately before resuspension. Cultures were than plated in 50 μl droplets onto glass coverslips that were coated with poly-D-lysine and incubated for 5–6 h; the transfection media were then replaced with full DRG culture medium. Patch-clamp recordings were conducted 24–48 h after the transfection. The following primers were used for reverse transcription polymerase chain reaction (RT-PCR) analysis: • Cacna1h sense: 5′-[…]-3′ • Cacna1h AS: 5′-[…]-3′ • Gapdh sense: 5′-[…]-3′ • Gapdh AS: 5′-[…]-3′
Neuronal excitability was studied using the amphotericin B-perforated patch-clamp current technique ([13]). The extracellular solution contained the following (in mM): 160 NaCl, 2.5 KCl, 5 CaCl2, 1 MgCl2, 10 HEPES, and 8 Glucose. The intracellular solution contained the following (in mM): 145 KCl, 15 NaCl, 5 MgCl2, 10 HEPES, and 250 μg/ml Amphotericin B. The access resistance was typically within […]. APs were generated by an injection of 200 pA current for 1 s from a holding current of 0 pA. Rheobase was determined from a train of current steps from 0 to 400 pA delivered in 20-pA increments. Current clamp recordings were sampled at 12.5 kHz. Bridge balance adjustments were not applied, since only relative changes in Erest, AP number, and rheobase were investigated.

The next experiment has as its system CaV3. The following applies: cited from earlier work. On the procedure: The T-type Ca^2+ current is an important regulator of sensory neuron excitability ([10], [17], [18], [20], [23], [24], [51], [71], [75]). […] Z944 (1 μM) inhibited LVA curren ...
The test system of experiment [4] is rat hind paw. The experiment in a line: von Frey test. It counts as in vivo. To be noted: 50 μl; 0.001 nmol/site; filaments 2–15 g; 8 min after injection. On the procedure: (§1) For measurement of sensitivity to gentle touch and mechanical hyperalgesia, two methods were used. (i) Cotton swab test was performed as previously described ([53]). Briefly, rats were allowed to acclimate in a cage with a wire mesh bottom for at least 30 min and then were manually probed with a “cotton swab” pulled from a Q-tip (to approximately three times the original size). A swab was applied in a sweeping motion underneath the rats’ paws, and the withdrawal responses were recorded. Five sweeps were applied in each test, with at least 10 s between each sweep; withdrawal score was calculated as a percentage of positive responses. (ii) The von Frey test was performed using a calibrated range of filaments with different bending forces (2, 4, 6, 8, 10, and 15 g; Stoelting Co.). A single filament was applied perpendicularly to the plantar surface of the hind paw for five times, with an interval of 5 s, and it was scored for withdrawal responses. Each force was probed five times, the number of withdrawals out of five trials was counted, and the percentage of withdrawal responses was calculated. Both types of assays were performed 8 min after the hind-paw drug injection.

Experiment [5] has as its system high-voltage-activated (HVA) Ca^2+ currents in DRG neurons. The experiment in a line: HVA Ca2+ current, whole-cell patch clamp, DRG neurons. The format is cell-based, rat. The following applies: 1 nM. On the procedure:
DRG neurons from adult male Sprague–Dawley rats (170–180 g) were dissociated as previously described ([13], [29]) and cultured in DMEM supplemented with GlutaMax I, 10% fetal calf serum, penicillin (50 U/ml), and streptomycin (50 μg/ml) on glass coverslips that were coated with poly-D-lysine for 2–5 days in a humidified incubator (37°C, 5% CO2). No growth factors were added to the culture media. HEK 293 cells were cultured in the same DMEM media; cells were passaged every 2 days. Human NK1 receptor (GenBank accession No. AY462098) complementary DNA (cDNA) was from the Missouri Science and Technology cDNA Resource Center. WtCaV3.1 (GenBank accession No. AF027984), wtCaV3.2 (GenBank accession No. AF051946), CaV3.1Q172H, and CaV3.2H191Q were kindly provided by Dr E. Perez-Reyes (University of Virginia). HEK293 cells were transfected using Lipofectamine 2000 (Invitrogen) according to the manufacturer's instructions. […]
All recordings were made using Multiclamp 700B amplifier in combination with pCLAMP 10.4 software (Molecular Devices). […] T-type calcium currents (LVA) were measured by 50 ms square voltage pulses to −40 mV from a holding potential of −90 mV. HVA currents were measured by 200 ms square voltage pulses to 0 mV from a holding potential of −90 mV.
On the technique in general: Patch clamp records ionic current or voltage across a cell membrane.

Experiment [6] relates to rat hind paw. In words: Hargreaves test, paw withdrawal latency to noxious heat. It counts as in vivo. The following applies: hind-paw injection 0.001 nmol/site; 8 min after injection. On the procedure: For measurement of thermal hyperalgesia, the change in the latency of hind-paw withdrawal in response to noxious heat was recorded using the Hargreaves’ plantar method (Ugo Basile) at 8 min after the hind-paw injection of drugs; the heat source was set to 25% of the maximal intensity.

The subject of experiment [7] is T-type Ca^2+ channels (LVA Ca^2+ current) in DRG neurons. The experiment in a line: LVA (T-type) Ca2+ current, whole-cell patch clamp, cultured small-diameter DRG neurons. It counts as cell-based, rat. To be noted: 1 nM; mean ± SEM, n = 7; SEM. How it is done: DRG neurons from adult male Sprague–Dawley rats (170–180 g) were dissociated as previously described ([13], [29]) and cultured in DMEM supplemented with GlutaMax I, 10% fetal calf serum, penicillin (50 U/ml), and streptomycin (50 μg/ml) on glass coverslips that were coated with poly-D-lysine for 2–5 days in a humidified incubator (37°C, 5% CO2). No growth factors were added to the culture media. HEK 293 cells were cultured in the same DMEM media; cells were passaged every 2 days. Human NK1 receptor (GenBank accession No. AY462098) complementary DNA (cDNA) was from the Missouri Science and Technology cDNA Resource Center. WtCaV3.1 (GenBank accession No. AF027984), wtCaV3.2 (GenBank accession No. AF051946), CaV3.1Q172H, and CaV3.2H191Q were kindly provided by Dr E. Perez-Reyes (University of Virginia). HEK293 cells were transfected using Lipofectamine 2000 (Invitrogen) according to the manufacturer's instructions. ST101 was synthesized in house; Z944 was from Toronto Research Chemicals; PTX was from Enzo Life Science; and FluoZin-3AM was from Life Technologies. All other chemicals were from Sigma.
All recordings were made using Multiclamp 700B amplifier in combination with pCLAMP 10.4 software (Molecular Devices). Voltage-clamp recordings from DRG neurons were made using whole-cell patch clamp. The standard bath solution contained the following (in mM): 150 TEA-Cl; 2.5 CsCl; 2.5 CaCl2; 10 HEPES; 0.5 MgCl2; and 10 glucose (pH 7.4 adjusted with CsOH). The standard pipette solution contained the following (in mM): 110 CsCl; 3 MgCl2; 10 EGTA; 10 HEPES; 3 Mg-ATP; and 0.6 GTP (pH 7.4 adjusted with CsOH). The access resistance was typically within 4–8 MΩ. T-type calcium currents (LVA) were measured by 50 ms square voltage pulses to −40 mV from a holding potential of −90 mV. HVA currents were measured by 200 ms square voltage pulses to 0 mV from a holding potential of −90 mV.
where y is the current inhibition; A1 and A2 are the maximum and minimum effects, respectively; x is the S9SP concentration; and nH is the Hill coefficient.

Experiment [8] concerns voltage-gated Na^+ current in DRG neurons. The experiment in a line: Voltage-gated Na+ current in DRG neurons. It counts as cell-based, rat. The following applies: 1 nM.
In experiment [9] the test system is rat hind paw. In words: Cotton swab test (gentle touch). The format is in vivo. The following applies: 50 μl; 0.001 nmol/site. On the procedure: as §1

Ends that are not written are not given here.

Consider `O=C1N=C2C=CC=CN2C12Cc1ccccc1C2` [ST101, spiro[imidazo[1,2-a]pyridine-3,2-indan]-2(3H)-one], for which the “effect on delayed-rectifier K^+ current” value in experiment [1] is “no effect”. In addition, the nocifensive behavior entry in the experiment with rat hind paw [2] (0.001–10 nmol/site) is reported as “moderate but significant protective effect”. Moreover, the “resting membrane potential (Erest)” value in experiment [3] is on record as “depolarized”. Moreover, the “action potential (AP) firing” value in [3] (200 pA for 1 s) was “significantly increased”. Moreover, the “small DRG neuron excitability” value in experiment [3] (perforated current clamp) was “increased”. Further, the “effect on Erest, AP number, or rheobase in Cacna1h knocked-down neurons” value in experiment [3] (siRNA against Cacna1h) was “neither Z994 nor ST101 produced any significant effect”. In addition, the “EC50, CaV3 potentiation” value with CaV3 is given as “sub-nanomolar range”. In addition, the “response to von Frey filament stimulation” value in the experiment on rat hind paw [4] is “greatly increased response rates”. Also, the “effect on HVA current” value in [5] was “without an effect”. The “paw withdrawal latency on radiant heat exposure” value in the experiment on rat hind paw [6] was “significantly reduced”. For the same compound, the “enhancement of peak LVA current” value in experiment [7] was 50.6% ± 14.1%. Moreover, in [8], the “effect on voltage-gated Na^+ current” value is “no effect”. The “sensitivity to light touch, cotton swab assay” value with rat hind paw [9] was “ineffective”.

As for “RPPGFSPFR [BK, bradykinin, pro-algesic signaling peptide]”, the nocifensive behavior entry with rat hind paw [2] (10 nmol/site) was “strong nocifensive response”. Further, in experiment [3] (250 nM), the AP number entry is reported as “increased”, the Erest entry is “depolarized” and the rheobase result is reported as “significantly reduced”.
